Results as given in patent US6596687B1, “Cell adhesion inhibitors” (Biogen, Inc., priority 1995, dated 2003).
Numbered stars: 1 amine (or outer) side, 2 acyl side, 3 side chain; on linkers, the order of the positions; unused ones are H or OH. Square brackets hold non-standard residues; d marks the D form. Peptide text beside a SMILES is read from it. * marks the point of attachment. X3 = COc1cc(CC(=O)[*:2])ccc1N[*:1]; Boc = CC(C)(C)OC(=O)*; CO = O=C([*:1])[*:2]; NHBn = c1ccc(CN*)cc1; NHPh = c1ccc(N*)cc1

Target: T1, VLA4 (Homo sapiens, UniProt P05556+P13612)
T1 construct: endogenous in cells; host or cells: Ramos cells
Experiment: Inhibition of VLA4-dependent adhesion of Ramos cells to BSA-CS1
Format: cell-based
Conditions: Ramos cells, BSA-CS1 coated wells, 2 mM MnCl2, 30 minutes at room temperature; read-out: IC50
Description: For example, the cell adhesion inhibitory activity of these compounds may be measured by determining the concentration of inhibitor required to block the binding of VLA-4-expressing cells to fibronectin- or CS1-coated plates. In this assay microtiter wells are coated with either fibronectin (containing the CS1-sequence) or CS-1. If CS-1 is used, it must be conjugated to a carrier protein, such as bovine serum albumin, in order to bind to the wells. Once the wells are coated, varying concentrations of the test compound are then added together with appropriately labelled, VLA-4-expressing cells. Alternatively, the test compound may be added first and allowed to incubate with the coated wells prior to the addition of the cells. The cells are allowed to incubate in the wells for at least 30 minutes. Following incubation, the wells are emptied and washed. Inhibition of binding is measured by quantitating the fluorescence or radioactivity bound to the plate for each of the various concentrations of test compound, as well as for controls containing no test compound.
VLA-4-expressing cells that may be utilized in this assay include Ramos cells, Jurkat cells, A375 melanoma cells, as well as human peripheral blood lymophocytes (PBLs). The cells used in this assay may be fluorescently or radioactively labelled.
This assay was used to assess the potency of VLA4-directed inhibitory compounds of this invention. 1.
We dissolved BSA-SMCC (Pierce Chemical, Rockford, Ill.; Catalog #77115) in H2O at a concentration of 10 mg/mL. [SEQ ID NO:4]: […](“Cys-Tyr-CS1 peptide”), which we synthesized by conventional solid phase chemistry and purified by HPLC, was dissolved in 10 mM HEPES pH 5, 50 mM NaCl and 0.1 mM EDTA also at a concentration of 10 mg/mL. We then mixed 500 μL of BSA-SMCC, 250 μL of Cys-Tyr-CS1 peptide and 75 μL of 1 mM HEPES pH 7.5 and allowed the conjugation reaction to proceed for 30 minutes. We stopped the reaction by adding 1 μL of beta-mercaptoethanol. Samples were analyzed for cross-linking by SDS-PAGE.
We coated the wells of a Linbro titertek polystyrene 96-well flat bottom plate (Flow Laboratories, Maclean, Va.; catalog #76-231-05) with 100 μL of the above-described BSA-CS1 solution diluted to 1 μg/mL in 0.05 M NaHCO3 (15 mM NaHCO3, 35 mM Na2CO3) pH 9.2. Some wells were not coated with CS1 in order to assess non-specific cell binding (NSB). The plate was then incubated overnight at 4° C.
Following this incubation, the contents of the wells were removed by inverting and blotting the plate. All of the wells were then blocked with 100 μL of 1% BSA in PBS, 0.02% NaN3, for a minimum of one hour at room temperature.
Ramos cells are grown, maintained and labelled in RPMI 1640 culture medium containing 1% BSA. Just prior to running the assay, we added 2′, 7′-bis-(2-carboxyethyl)-5(and -6)carboxyfluorescein acetoxymethyl ester (“BCECF-AM”; Molecular Probes Inc., Eugene, Oregon; catalog #B-1150) to a final concentration of 2 μM to a culture of Ramos cells (4×10^6 cells/mL). We incubated the cells for 20 minutes at 37° C.
Following labelling, the cells were washed twice in assay buffer (24 mM TRIS, 137 mM NaCl, 2.7 mM KCl, pH 7.4, containing 0.1 BSA and 2mM glucose) to remove any cations originating from the culture medium. The cells were then resuspended in assay buffer to 4×10^6 cells/mL and 2 mM MnCl2 was added to upregulate VLA4 on the surface of the cells.
Immediately prior to running the assay, we removed the BSA blocking solution from the 96-well plates and washed the wells with 100 μL of assay buffer. We then added to each well 25 μL of test cell adhesion inhibitory compound at 2×the final concentration and 25 μL of the labelled Ramos cells. […] Each concentration of compound was tested in triplicate. The compound and cells are allowed to incubate for 30 minutes at room temperature.

T1 sequence (P13612 34-1032): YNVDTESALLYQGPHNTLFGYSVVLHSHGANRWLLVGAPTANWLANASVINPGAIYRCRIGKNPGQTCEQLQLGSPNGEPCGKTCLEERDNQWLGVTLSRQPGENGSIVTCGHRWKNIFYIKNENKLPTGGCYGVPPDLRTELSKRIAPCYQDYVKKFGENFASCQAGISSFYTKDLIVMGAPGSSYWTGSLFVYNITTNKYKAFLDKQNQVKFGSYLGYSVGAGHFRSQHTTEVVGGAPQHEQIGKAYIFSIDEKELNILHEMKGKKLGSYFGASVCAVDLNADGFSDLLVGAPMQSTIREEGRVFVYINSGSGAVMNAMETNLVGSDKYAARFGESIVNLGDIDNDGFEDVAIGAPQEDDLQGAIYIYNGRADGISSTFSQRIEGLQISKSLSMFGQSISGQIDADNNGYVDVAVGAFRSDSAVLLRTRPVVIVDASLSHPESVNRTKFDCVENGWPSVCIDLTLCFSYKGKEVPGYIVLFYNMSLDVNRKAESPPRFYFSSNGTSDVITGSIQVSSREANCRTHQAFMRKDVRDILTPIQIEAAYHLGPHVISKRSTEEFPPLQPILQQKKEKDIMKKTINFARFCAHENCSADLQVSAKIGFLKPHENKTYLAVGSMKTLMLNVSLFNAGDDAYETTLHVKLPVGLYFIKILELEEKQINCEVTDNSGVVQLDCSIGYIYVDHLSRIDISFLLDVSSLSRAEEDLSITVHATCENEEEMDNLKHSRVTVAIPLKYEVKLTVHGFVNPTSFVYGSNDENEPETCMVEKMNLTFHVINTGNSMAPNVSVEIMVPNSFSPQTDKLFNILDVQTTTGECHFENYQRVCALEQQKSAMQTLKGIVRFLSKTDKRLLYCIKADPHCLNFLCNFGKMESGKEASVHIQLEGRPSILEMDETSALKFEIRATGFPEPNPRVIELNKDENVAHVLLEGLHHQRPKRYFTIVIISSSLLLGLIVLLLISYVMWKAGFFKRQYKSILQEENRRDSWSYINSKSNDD
T1 sequence (P05556 21-798): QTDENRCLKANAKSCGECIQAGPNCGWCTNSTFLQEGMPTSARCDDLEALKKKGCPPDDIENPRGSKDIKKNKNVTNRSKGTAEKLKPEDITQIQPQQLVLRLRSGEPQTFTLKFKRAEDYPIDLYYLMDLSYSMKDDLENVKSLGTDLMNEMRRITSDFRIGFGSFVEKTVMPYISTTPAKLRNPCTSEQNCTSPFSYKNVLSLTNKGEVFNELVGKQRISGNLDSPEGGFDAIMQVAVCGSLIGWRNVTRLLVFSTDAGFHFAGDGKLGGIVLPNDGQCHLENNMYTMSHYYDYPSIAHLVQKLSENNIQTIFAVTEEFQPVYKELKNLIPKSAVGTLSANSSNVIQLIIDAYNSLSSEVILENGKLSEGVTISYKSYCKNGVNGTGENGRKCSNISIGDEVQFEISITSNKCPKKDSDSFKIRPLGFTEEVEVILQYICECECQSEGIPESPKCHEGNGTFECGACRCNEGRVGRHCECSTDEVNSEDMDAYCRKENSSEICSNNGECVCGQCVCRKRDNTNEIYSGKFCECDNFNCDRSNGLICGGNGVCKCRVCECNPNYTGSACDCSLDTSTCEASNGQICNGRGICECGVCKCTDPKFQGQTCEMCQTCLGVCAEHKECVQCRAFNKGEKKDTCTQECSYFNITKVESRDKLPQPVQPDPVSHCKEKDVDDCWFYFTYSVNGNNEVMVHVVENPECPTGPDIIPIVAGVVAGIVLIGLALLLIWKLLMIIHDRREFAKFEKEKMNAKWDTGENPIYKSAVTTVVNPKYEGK

IC50	Compound
< 0.05 µM	COc1cc(CC(=O)N[C@@H](CC(C)C)C(=O)N[C@@H](CC(=O)O)C(=O)N[C@H](C(=O)N2CCC[C@H]2C(=O)O)C(C)C)ccc1NC(=O)Nc1ccccc1 [Compound 1] ({NHPh-CO}-[X3]LDVP-OH)
< 0.05 µM	COc1cc(CC(=O)N[C@@H](CCSC)C(=O)N[C@@H](CC(=O)O)C(=O)N[C@H](C(=O)N2CCC[C@H]2C(=O)O)C(C)C)ccc1NC(=O)Nc1ccccc1 [Compound 2] ({NHPh-CO}-[X3]MDVP-OH)
< 0.05 µM	COc1nc(CC(=O)N[C@@H](CC(C)C)C(=O)N[C@@H](CC(=O)O)C(=O)N[C@H](C(N)=O)C(C)C)ccc1NC(=O)Nc1ccccc1C [Compound 3]
> 10 µM	CC(C)C[C@H](NC(=O)c1cc2ccccc2cn1)C(=O)N[C@@H](CCC(=O)O)C(=O)N[C@H](C(=O)O)C(C)C [Compound 5]
> 10 µM	CC(C)C[C@H](NC(=O)c1cc2ccccc2cn1)C(=O)N[C@@H](CO)C(=O)N[C@H](C(=O)O)C(C)C [Compound 7]
> 10 µM	CC(C)C[C@H](NC(=O)c1cc2ccccc2cn1)C(=O)N[C@@H](CS)C(=O)N[C@H](C(=O)O)C(C)C [Compound 9]
> 10 µM	CC(C)C[C@H](NC(=O)c1cc2ccccc2cn1)C(=O)N[C@@H](CC(=O)O)C(=O)O [Compound 12]
> 10 µM	CC(C)CNC(=O)[C@@H](CC(=O)O)NC(=O)[C@H](CC(C)C)NC(=O)CCc1ccc(O)cc1 [Compound 15]
> 10 µM	CCC(C)C(NC(=O)CCc1ccc(O)cc1)C(=O)NC(CC(=O)O)C(=O)NCC(C)C (stereo not drawn) [Compound 17]
0.05 to 10 µM	COC(=O)[C@@H](NC(=O)[C@H](CC(=O)O)NC(=O)[C@H](CC(C)C)N(C)C(=O)CCc1ccc(O)cc1)C(C)C [Compound 18]
> 10 µM	COC(=O)[C@@H](NC(=O)[C@H](CC(=O)O)NC(=O)[C@H](CC(C)C)NC(=O)CCc1ccc(O)cc1)C(C)C [Compound 19]
> 10 µM	COC(=O)[C@H](C(C)C)N(C)C(=O)[C@H](CC(=O)O)NC(=O)[C@H](CC(C)C)NC(=O)CCc1ccc(O)cc1 [Compound 20]
> 10 µM	COC(=O)[C@@H](NC(=O)[C@H](CC(=O)O)N(C)C(=O)[C@H](CC(C)C)NC(=O)CCc1ccc(O)cc1)C(C)C [Compound 22]
> 10 µM	CC(C)C[C@H](NC(=O)C1Cc2ccccc2CN1)C(=O)N[C@@H](CC(=O)O)C(=O)O (stereo partly drawn) [Compound 23] (HELM PEPTIDE1{[O=C(C1Cc2ccccc2CN1)[*:2]].L.D}$$$$V2.0)
> 10 µM	COC(=O)[C@@H](NC(=O)[C@H](CC(=O)O)NC(=O)[C@H](CC(C)C)N(Cc1ccccc1)C(C)=O)C(C)C [Compound 28]
> 10 µM	COC(=O)[C@@H](NC(=O)[C@H](CC(=O)O)NC(=O)[C@H](CC(C)C)N(CCc1ccccc1)C(C)=O)C(C)C [Compound 29]
> 10 µM	COC(=O)[C@@H](NC(=O)[C@H](CC(=O)O)NC(=O)[C@H](CC(C)C)N(CCc1ccccc1)C(=O)CCc1ccccc1)C(C)C [Compound 30]
> 10 µM	CC(C)C[C@H](NC(=O)C1Cc2ccccc2CN1)C(=O)N[C@@H](CCC(=O)O)C(=O)N[C@H](C(=O)O)C(C)C (stereo partly drawn) [Compound 31] (HELM PEPTIDE1{[O=C(C1Cc2ccccc2CN1)[*:2]].L.E.V}$$$$V2.0)
> 10 µM	CC(C)C[C@H](NC(=O)c1cc2ccccc2cn1)C(=O)N[C@@H](CC(=O)O)C(=O)N[C@H](C(=O)N1CCC[C@H]1C(=O)O)C(C)C [Compound 32]
0.05 to 10 µM	CC(C)C[C@H](NC(=O)Cc1ccccc1)C(=O)N[C@@H](CC(=O)O)C(=O)N[C@H](C(=O)N1CCC[C@H]1C(=O)O)C(C)C [Compound 34]

IC50	Compound
0.05 to 10 µM	COC(=O)[C@@H]1CCCN1C(=O)[C@@H](NC(=O)[C@H](CC(=O)O)NC(=O)[C@H](CC(C)C)NC(=O)Cc1ccccc1)C(C)C [Compound 35]
> 10 µM	CC(C)C[C@H](NC(=O)CCc1ccccc1)C(=O)N[C@@H](CC(=O)O)C(=O)N[C@H](C(=O)N1CCC[C@H]1C(=O)O)C(C)C [Compound 36]
> 10 µM	COC(=O)[C@@H]1CCCN1C(=O)[C@@H](NC(=O)[C@H](CC(=O)O)NC(=O)[C@H](CC(C)C)NC(=O)CCc1ccccc1)C(C)C [Compound 37]
> 10 µM	CC(C)C[C@H](NC(=O)CCc1ccc(O)cc1)C(=O)N[C@@H](CC(=O)O)C(=O)N[C@H](C(=O)N1CCC[C@H]1C(=O)O)C(C)C [Compound 38]
> 10 µM	COC(=O)[C@@H]1CCCN1C(=O)[C@@H](NC(=O)[C@H](CC(=O)O)NC(=O)[C@H](CC(C)C)NC(=O)OC(C)(C)C)C(C)C [Compound 40]
0.05 to 10 µM	COC(=O)[C@@H]1CCCN1C(=O)[C@@H](NC(=O)[C@H](CC(=O)O)NC(=O)[C@H](CC(C)C)NC(=O)c1ccc2ccccc2n1)C(C)C [Compound 41]
0.05 to 10 µM	CC(C)CC(NC(=O)Cc1ccccc1)C(=O)NC(CC(=O)O)C(=O)NC(C(=O)N1CCCCC1C(=O)O)C(C)C (stereo not drawn) [Compound 42]
> 10 µM	CNC(=O)[C@@H](NC(=O)[C@H](CC(=O)O)NC(=O)[C@H](CC(C)C)N(C)C(=O)Cc1ccc(OC)cc1)C(C)C [Compound 45]
> 10 µM	CNC(=O)[C@@H](NC(=O)[C@H](CC(=O)O)NC(=O)[C@H](CC(C)C)N(C)C(=O)CCc1ccc(O)cc1)C(C)C [Compound 46]
> 10 µM	CNC(=O)[C@@H](NC(=O)[C@H](CC(=O)O)NC(=O)[C@H](CC(C)C)NC(=O)NCc1ccccc1)C(C)C [Compound 47] ({NHBn-CO}-Leu-Asp-Val-NHMe)
> 10 µM	CNC(=O)[C@@H](NC(=O)[C@H](CC(=O)O)NC(=O)[C@H](CC(C)C)NC(=O)Nc1ccc(C)cc1)C(C)C [Compound 48]
0.05 to 10 µM	CNC(=O)[C@@H](NC(=O)[C@H](CC(=O)O)NC(=O)[C@H](CC(C)C)NC(=O)c1ccc2ccccc2n1)[C@@H](C)OC [Compound 59]
> 10 µM	CC(C)C[C@H](NC(=O)c1ccc2ccccc2n1)C(=O)N[C@@H](CC(=O)O)C(=O)N[C@H](C(=O)NC(C)(C)C)[C@@H](C)O [Compound 60]
0.05 to 10 µM	CC(C)C[C@H](NC(=O)c1ccc2ccccc2n1)C(=O)N[C@@H](CC(=O)O)C(=O)N[C@H](C(=O)N1CCOCC1)[C@@H](C)O [Compound 61]
> 10 µM	CC(C)C[C@H](NC(=O)OC(C)(C)C)C(=O)N[C@@H](CC(=O)O)C(=O)N[C@H](C(=O)NC(C)(C)C)[C@@H](C)O [Compound 62] (HELM PEPTIDE1{[CC(C)(C)OC(=O)[*:2]].L.D.T.[CC(C)(C)N[*:1]]}$$$$V2.0)
> 10 µM	CC(C)C[C@H](NC(=O)C1(NC(=O)OC(C)(C)C)CCc2ccccc2C1)C(=O)N[C@@H](CC(=O)O)C(=O)N[C@H](C(=O)O)C(C)C (stereo partly drawn) [Compound 63] (HELM PEPTIDE1{[CC(C)(C)OC(=O)[*:2]].[O=C(C1(N[*:1])CCc2ccccc2C1)[*:2]].L.D.V}$$$$V2.0)
> 10 µM	CC(C)C[C@H](NC(=O)CCc1ccccc1)C(=O)N[C@@H](CC(=O)O)C(=O)N[C@H](C(=O)O)C(C)C [Compound 64] (HELM PEPTIDE1{[O=C(CCc1ccccc1)[*:2]].L.D.V}$$$$V2.0)
> 10 µM	CC(C)C[C@H](NC(=O)C(Cc1ccc(O)cc1)N(S(C)(=O)=O)S(C)(=O)=O)C(=O)N[C@@H](CC(=O)O)C(=O)N[C@H](C(=O)O)C(C)C (stereo partly drawn) [Compound 65]
> 10 µM	CC(C)CC(NC(=O)C(Cc1ccc(O)cc1)NC(=O)OC(C)(C)C)C(=O)NC(CC(=O)O)C(=O)NC(C(=O)O)C(C)C (stereo not drawn) [Compound 66] (Boc-YLDV-OH; configuration not given here)
